Measured values taken from patent publication US8729053B2, “Nuclear factor kappa B pathway inhibitor composition and use of same” (The United States of America, as represented by the …, priority 2008, dated 2014).
Entries after “also recorded” stand apart in the source; their conditions may differ. Structures can show the parent of a compound that is named as a salt.

Legend:
IKKα = IKKα (Homo sapiens, UniProt O15111); assay: Off-chip incubation mobility-shift kinase assay, IKKα; format: biochemical; details: fully activated, phosphorylated IKKα; 1.25, 2.50, 5.00, and 10.00 μM
Protocol: In an attempt to determine whether compound I interferes with ATP binding to the catalytic site, the activity of compound I was measured with fully activated, phosphorylated IKKα or IKKβ. […] However, whether this compound interacts outside of the ATP binding pocket of IKK as an ATP non-competitive inhibitor similar to BMS-345541 is unknown. […] Luciferase activities with TPA induction alone were set at 100% and the relative activities with TPA in the presence of compounds are shown.

COX-2 promoter = COX-2 promoter luciferase reporter assay in HEK293 cells; format: cell-based, human; details: TPA 10 ng/ml 18 hours
Protocol: All expression plasmids were transiently transfected into HEK293 cells in a 96-well plate (0.1 μg/well) by using Effectene transfection reagent (Qiagen, Valencia, Calif.) according to the manufacturer's manual. HEK293 cells were maintained in Dulbecco's modified Eagle medium (Sigma, St. Louis, Mo.) supplemented with 10% fetal bovine serum (Atlanta Biologicals, Lawrenceville, Ga.) and incubated at 37° C. in a 5% CO2 incubator. After 24 hrs incubation, the medium was changed to DMEM with 0.2% FBS, and the transfectants were exposed to various concentrations of compound I and TPA (10 ng/ml). Cells were lysed with passive lysis buffer and the luciferase assay was performed using the Firefly-Luciferase reporter assay system (Promega, Madison, Wis.) and MLX Luminometer (Dynex Technology, Chantilly, Va.).
Three different luciferase reporter genes, AP-1 reporter containing four times TRE consensus originated from GCN4 and SRE reporter purchased from Stratagene (La Jolla, Calif.) respectively are as described previously (Suzukawa et al., Environ. Health Perspect., 2002, 110, 865-70). […]
Inhibition of NFκB transactivation would be expected to result in suppressed expression of genes whose transcription depends on NFκB. Quantitative RT-PCR was used to measure endogenous levels of IL-6 mRNA, transcribed from a gene whose transcription depends on NFκB but not AP-1. […]

NFκB = assay: EMSA of NFκB DNA binding, HEK293 nuclear fractions; format: cell-based
Protocol: EMSA was performed with the nuclear fraction of HEK293 cell using LightShift Chemiluminescent EMSA Kit (Pierce Biotechnology, Rockford, Ill.) according to the manufacture's instruction. Oligonucleotides for NFκB, NF-1, and AP-1 were labeled with biotin by Biotin 3′ End DNA labeling Kit (Pierce Biotechnology, Rockford, Ill.). The quantified 15 μg of nuclear extracts were incubated for 20 mins with 1 μg/μl Poly (dI.dC), biotin end-label target nucleotides in 20 μl binding buffer DNA-protein complexes were fractionated on 6% a polyacrylamide gel and transferred to a nylon membrane. The membranes were processed to detect biotin-label DNA by cross-linking, blocking, and detection incubations. Results were obtained by X-ray film exposure for 10 sec and development. The target sequences of oligonucleotides for NFκB, NF-1, and AP-1 are as follows;
To determine whether the effect of compound I on nuclear translocation of NFκB leads to inhibited binding of NFκB proteins to DNA, EMSA in HEK293 cells was performed. […] TPA-induced binding complex was attenuated by pretreatment with compound I in a dose-dependent manner (lanes 5-9). This binding inhibition parallels the inhibition of luciferase reporter transactivation and inhibition of nuclear translocation of NFκB proteins. The TPA-induced binding complex disappeared when the labeled NFκB oligonucleotide was competed with an excess of unlabelled probe (90× fold).

p65/p50 = assay: Nuclear translocation of p65/p50, immunoblot of nuclear and cytoplasmic extracts; format: cell-based; details: compound I pretreatment, HEK293
Protocol: To measure endogenous level of several proteins in response to TPA induction and compound I, HEK293 cells were lysed with RIPA buffer (10 mM Tris-HCl pH 7.5, 1 mM EDTA, 0.1% sodium dodecyl sulfate, 0.1% deoxycholate, and protease inhibitor). Whole cell extracts were subjected to immunoblot analysis with the following antibodies: p65 (F-6), p50 (E-10), p52 (C-5), RelB (C-19), IκBα (C-21), PCNA (F-2) were obtained from Santa Cruz Biotechnology (Santa Cruz, Calif.). IKKα, IKKβ, IKKγ, phospho-IκBα, phospho-IKKα/β, phospho-IKKγ, pohospho-Stat3 (Tyr 705 and Ser 727), phospho-p65 (Ser536 and Ser276), phospho-p44/42, phospho-JNKs were purchased from Cell Signaling (Danvers, Mass.), and α-tubulin from Sigma (St. Louis, Mo.). Nuclear and cytoplasmic extracts were prepared with HEK293 cells by NE-PER Nuclear and Cytoplasmic Extraction Reagents (Pierce Biotechnology, Rockford, Ill.) according to the manufacturer's protocol.
Nuclear translocation of endogenous p65/p50 and RelB/p52 heterodimers were monitored The activation of heterodimers p65/p50 and RelB/p52 occurs by distinct pathways dependent on IKKβ or IKKα catalytic activity. Repression of IKKβ would be expected to influence nuclear translocation of p65/p50 while repression of IKKα would influence processing of p100 to p52. […] However translocation of RelB is only dependent on IKKα for processing of its dimer partner p52 from p100. […]

Chain of IKKα (O15111 whole entry, species assumed): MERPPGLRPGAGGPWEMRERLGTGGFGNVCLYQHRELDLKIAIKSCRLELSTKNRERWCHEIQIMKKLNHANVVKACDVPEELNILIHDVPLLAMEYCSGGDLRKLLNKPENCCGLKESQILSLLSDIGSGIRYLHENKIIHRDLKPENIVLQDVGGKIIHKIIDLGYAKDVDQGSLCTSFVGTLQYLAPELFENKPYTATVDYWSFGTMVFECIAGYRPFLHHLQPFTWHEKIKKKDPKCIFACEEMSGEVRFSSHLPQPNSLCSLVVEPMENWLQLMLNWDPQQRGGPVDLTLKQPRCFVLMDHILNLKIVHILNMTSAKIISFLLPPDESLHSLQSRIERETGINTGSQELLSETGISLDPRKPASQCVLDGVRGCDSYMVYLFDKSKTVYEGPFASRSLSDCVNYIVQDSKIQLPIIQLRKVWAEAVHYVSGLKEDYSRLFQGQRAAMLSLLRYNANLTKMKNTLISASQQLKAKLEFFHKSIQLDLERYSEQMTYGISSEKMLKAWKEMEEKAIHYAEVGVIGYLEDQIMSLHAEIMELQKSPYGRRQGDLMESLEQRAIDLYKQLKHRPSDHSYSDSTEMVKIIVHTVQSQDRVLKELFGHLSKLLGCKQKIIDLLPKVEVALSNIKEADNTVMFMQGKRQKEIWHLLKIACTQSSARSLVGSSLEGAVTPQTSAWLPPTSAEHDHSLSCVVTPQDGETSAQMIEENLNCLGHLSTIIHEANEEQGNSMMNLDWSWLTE

Inhibition of IKKα activity, phosphorylation of a peptide substrate (IKKα): does not inhibit
NFκB DNA binding (NFκB; concentrations as low as 1.1 μM): repressed
TPA-induced NFκB DNA binding complex, dose-dependent manner (NFκB; lanes 5-9, 1 hour pretreatment, TPA 18 hours): attenuated
TPA-induced NFκB DNA binding complex (NFκB; pretreatment at 17 μM): marked loss of binding complex
SMILES: Cc1cc(N)ccc1N=Nc1ccc(S(=O)(=O)CCOS(=O)(=O)O)cc1 [compound I, 2-(4-((4-amino-2-methylphenyl)diazenyl)phenylsulfonyl)ethyl hydrogen sulfate]
COX-2 luciferase activity (COX-2 promoter): dose-dependent inhibition
TPA-induced nuclear translocation of p65 (RelA) (p65/p50): remarkably repressed; also recorded: interception
